From paper PMC6272715, “Discovery of Novel Small Molecule Anti-HCV Agents via the CypA Inhibitory Mechanism Using O-Acylation-Directed Lead Optimization” (Molecules, 2015)
Read-outs that look alike come from different tables or passages of the source.

Legend:
HCV JFH1-2a replicon = test: HCV JFH1-2a subgenomic replicon assay (Renilla luciferase, Huh 7.5.1 replicon cells); format: cell-based; details: Hepatitis C virus
HCV H77-1a replicon = test: HCV H77-1a subgenomic replicon assay; format: cell-based; details: Hepatitis C virus; Table 4; read-out: Anti-HCV Activity EC50 ± SD Replicon Assay H77-1a
[1] = Cell proliferation (cytotoxicity) assay, WST-1; format: cell-based; details: human, Huh 7.5.1 cells, Table 4, 48 h
Method: Cell Proliferation Assay: Huh 7.5.1 cells were seeded at a density of 2 × 10^4 cells per well in 96-well plates overnight. The cells were respectively incubated with serial diluted compounds for 48 h, and the viability of Huh7.5.1 cells was determined in 96-well tissue culture plates using cell proliferation reagent WST-1 (Roche, Basel, Switzerland). The absorbance (OD450 /reference OD630) was measured to detect the cytotoxicity of compounds, according to the manufacturer’s protocol of Cell Proliferation Reagent WST-1.

[2] = test system: JFH1-2a virus (wild type); test: HCV virus assay, JFH1-2a wild type, Huh 7.5.1 cells; details: Hepatitis C virus, Huh-7.5.1, read-out: Anti-HCV Activity EC50 ± SD Virus Assay JFH1-2a
HCV Con1-1b replicon = test: HCV Con1-1b subgenomic replicon assay; format: cell-based; details: Hepatitis C virus; Table 4; read-out: Anti-HCV Activity EC50 ± SD Replicon Assay Con1-1b
[3] = Table 1, mean ± SD of three independent experiments, read-out: Anti-HCV JFH1-2a Replicon Assay EC50 ± SD
[4] = Table 4, read-out: Anti-HCV Activity EC50 ± SD Replicon Assay JFH1-2a

SMILES | EC50 (HCV JFH1-2a replicon; [3]) [µM] | EC50 (HCV JFH1-2a replicon; [4]) [µM] | EC50 (HCV H77-1a replicon) [µM] | CC50 at 48 h [1] [µM] | EC50 [2] [µM] | EC50 (HCV Con1-1b replicon) [µM] | melting point [°C]
O=C(NC(=O)c1ccccc1F)NC1c2ccccc2-c2ccccc21 [Compound 8] | 1.65 ± 0.32 |  |  |  |  |  | 
CC(=O)Oc1cccc(OC(C)=O)c1C(=O)NC(=O)NC1c2ccccc2-c2ccccc21 [Compound 15, 1-[2,6-Bis-(acetoxy)benzoyl]-3-(9H-fluoren-9-yl)-urea] | 0.46 ± 0.05 | 0.46 ± 0.05 | 0.8 ± 0.13 | > 16 | 0.74 ± 0.36 | 0.36 ± 0.04 | 
CCCC(=O)Oc1cccc(O)c1C(=O)NC(=O)NC1c2ccccc2-c2ccccc21 [Compound 20, 1-(2-Hydroxy-6-n-butyryloxybenzoyl)-3-(9H-fluoren-9-yl)-urea] |  | 0.7 ± 0.02 | 0.98 ± 0.03 | > 16 | 0.28 ± 0.02 | 0.49 ± 0.02 | 204 to 210
CCCCC(=O)Oc1cccc(O)c1C(=O)NC(=O)NC1c2ccccc2-c2ccccc21 [Compound 22, 1-(2-Hydroxy-6-valeryloxybenzoyl)-3-(9H-fluoren-9-yl)-urea] |  | 0.47 ± 0.02 | 1 ± 0.06 | > 16 | 0.44 ± 0.03 | 0.44 ± 0.1 | 193 to 199
O=C(NC(=O)c1ccccc1[N+](=O)[O-])NC1c2ccccc2-c2ccccc21 [Compound 6] | > 50 |  |  |  |  |  | 
O=C(NC(=O)c1ccccc1C(F)(F)F)NC1c2ccccc2-c2ccccc21 [Compound 9] | > 10 |  |  |  |  |  | 
CC(C)(C)C(=O)Oc1cccc(O)c1C(=O)NC(=O)NC1c2ccccc2-c2ccccc21 [Compound 23, 1-(2-Hydroxy-6-trimethylacetoxyloxybenzoyl)-3-(9H-fluoren-9-yl)-urea] |  | 0.48 ± 0.02 | 0.67 ± 0.05 | > 16 | 0.53 ± 0.05 | 0.83 ± 0.28 | 187 to 189
O=C(NC(=O)c1c(OC(=O)C2CC2)cccc1OC(=O)C1CC1)NC1c2ccccc2-c2ccccc21 [Compound 29, 1-[2,6-Bis-(cyclopropylformyloxy)benzoyl]-3-(9H-fluoren-9-yl)-urea] |  | 0.42 ± 0.14 | 0.52 ± 0.14 | > 16 | 0.74 ± 0.35 | 0.6 ± 0.19 | 183 to 186
CCCC(=O)Oc1cccc(OC(=O)CCC)c1C(=O)NC(=O)NC1c2ccccc2-c2ccccc21 [Compound 28, 1-[2,6-Bis-(n-butyryloxy)benzoyl]-3-(9H-fluoren-9-yl)-urea] |  | 0.84 ± 0.32 | 0.79 ± 0.2 | > 16 | 0.68 ± 0.47 | 0.62 ± 0.15 | 186 to 188
O=C(NC(=O)c1c(F)cccc1F)NC1c2ccccc2-c2ccccc21 [Compound 11] | > 50 |  |  |  |  |  | 
CSc1ccccc1C(=O)NC(=O)NC1c2ccccc2-c2ccccc21 [Compound 10] | > 50 |  |  |  |  |  | 
CCCCCC(=O)Oc1cccc(O)c1C(=O)NC(=O)NC1c2ccccc2-c2ccccc21 [Compound 24, 1-(2-Hexanoyloxy-6-hydroxybenzoyl)-3-(9H-fluoren-9-yl)-urea] |  | 1.08 ± 0.05 | 1.05 ± 0.01 | > 16 | 0.74 ± 0.37 | 1 ± 0.01 | 200 to 222
CSc1cccc(F)c1C(=O)NC(=O)NC1c2ccccc2-c2ccccc21 [Compound 12] | > 50 |  |  |  |  |  | 
O=C(NC(=O)c1ccccc1Cl)NC1c2ccccc2-c2ccccc21 [Compound 5] | > 50 |  |  |  |  |  | 
COc1cccc(Cl)c1C(=O)NC(=O)NC1c2ccccc2-c2ccccc21 [Compound 13] | > 50 |  |  |  |  |  | 
CCC(=O)Oc1cccc(OC(=O)CC)c1C(=O)NC(=O)NC1c2ccccc2-c2ccccc21 [Compound 27, 1-[2,6-Bis-(propionyloxy)benzoyl]-3-(9H-fluoren-9-yl)-urea] |  | 0.38 ± 0.03 | 0.52 ± 0.27 | > 16 | 0.42 ± 0.08 | 0.38 ± 0.02 | 165 to 167
O=C(NC(=O)c1c(O)cccc1O)NC1CCCCC1 [Compound 4] | > 50 |  |  |  |  |  | 
CCCCC(=O)Oc1cccc(OC(=O)CCCC)c1C(=O)NC(=O)NC1c2ccccc2-c2ccccc21 [Compound 30, 1-[2,6-Bis-(valeryloxy)benzoyl]-3-(9H-fluoren-9-yl)-urea] |  | 0.62 ± 0.05 | 0.73 ± 0.11 | > 16 | 0.47 ± 0.01 | 0.83 ± 0.26 | 172 to 174
O=C(NC(=O)c1c(O)cccc1OC(=O)C1CC1)NC1c2ccccc2-c2ccccc21 [Compound 21, 1-(2-Cyclopropyl formyloxy-6-hydroxybenzoyl)-3-(9H-fluoren-9-yl)-urea] |  | 0.43 ± 0.08 | 0.57 ± 0.2 | > 16 | 0.78 ± 0.35 | 0.85 ± 0.24 | 194 to 199
O=C(NC(=O)c1c(OC(=O)c2ccccc2)cccc1OC(=O)c1ccccc1)NC1c2ccccc2-c2ccccc21 [Compound 26, 1-[2,6-Bis-(benzoyloxy)benzoyl]-3-(9H-fluoren-9-yl)-urea] |  | 0.36 ± 0.03 | 0.53 ± 0.21 | > 16 | 1.09 ± 0.03 | 0.39 ± 0.05 | 211 to 213
CCCCCC(=O)Oc1cccc(OC(=O)CCCCC)c1C(=O)NC(=O)NC1c2ccccc2-c2ccccc21 [Compound 32, 1-[2,6-Bis-(hexanoyloxy)benzoyl]-3-(9H-fluoren-9-yl)-urea] |  | 0.38 ± 0.05 | 0.63 ± 0.29 | > 16 | 0.74 ± 0.31 | 0.73 ± 0.34 | 162 to 165
O=C(NC(=O)c1c(O)cccc1O)Nc1cccc2ccccc12 [Compound 2] | > 10 |  |  |  |  |  | 
CCC(=O)Oc1cccc(O)c1C(=O)NC(=O)NC1c2ccccc2-c2ccccc21 [Compound 19, 1-(2-Hydroxy-6-propionyloxybenzoyl)-3-(9H-fluoren-9-yl)-urea] |  | 0.94 ± 0.07 | 0.38 ± 0.22 | > 16 | 0.47 ± 0.04 | 0.72 ± 0.2 | 206 to 216
O=C(NC(=O)c1c(O)cccc1OCCO)NC1c2ccccc2-c2ccccc21 [Compound 16] | > 20 |  |  |  |  |  | 
CC(C)(C)C(=O)Oc1cccc(OC(=O)C(C)(C)C)c1C(=O)NC(=O)NC1c2ccccc2-c2ccccc21 [Compound 31, 1-[2,6-Bis-(trimethylacetoxyloxy)benzoyl]-3-(9H-fluoren-9-yl)-urea] |  | 0.75 ± 0.29 | 0.87 ± 0.27 | > 16 | 0.84 ± 0.21 | 0.56 ± 0.2 | 202 to 205
O=C(NCc1ccccc1)NC(=O)c1c(O)cccc1O [Compound 3] | > 50 |  |  |  |  |  | 
CCCCCCCC(=O)Oc1cccc(OC(=O)CCCCCCC)c1C(=O)NC(=O)NC1c2ccccc2-c2ccccc21 [Compound 33, 1-[2,6-Bis-(n-Octanoyloxy)benzoyl]-3-(9H-fluoren-9-yl)-urea] |  | 0.98 ± 0.01 | 0.54 ± 0.15 | > 16 | 0.95 ± 0.02 | 0.73 ± 0.2 | 152 to 153
O=C(NC(=O)c1c(OCCO)cccc1OCCO)NC1c2ccccc2-c2ccccc21 [Compound 17] | > 20 |  |  |  |  |  | 
N#Cc1ccccc1C(=O)NC(=O)NC1c2ccccc2-c2ccccc21 [Compound 7] | > 50 |  |  |  |  |  | 
